From EP3046573B1, “AMYLIN ANALOGUES” (Zealand Pharma A/S, priority 2013, dated 2015) come the findings set out here.

The target of data set [1] is T1, human calcitonin receptor (hCTR2) (Homo sapiens, UniProt P30988).
T1 construct: expressed in transfected cells
T1 sequence (P30988 25-474): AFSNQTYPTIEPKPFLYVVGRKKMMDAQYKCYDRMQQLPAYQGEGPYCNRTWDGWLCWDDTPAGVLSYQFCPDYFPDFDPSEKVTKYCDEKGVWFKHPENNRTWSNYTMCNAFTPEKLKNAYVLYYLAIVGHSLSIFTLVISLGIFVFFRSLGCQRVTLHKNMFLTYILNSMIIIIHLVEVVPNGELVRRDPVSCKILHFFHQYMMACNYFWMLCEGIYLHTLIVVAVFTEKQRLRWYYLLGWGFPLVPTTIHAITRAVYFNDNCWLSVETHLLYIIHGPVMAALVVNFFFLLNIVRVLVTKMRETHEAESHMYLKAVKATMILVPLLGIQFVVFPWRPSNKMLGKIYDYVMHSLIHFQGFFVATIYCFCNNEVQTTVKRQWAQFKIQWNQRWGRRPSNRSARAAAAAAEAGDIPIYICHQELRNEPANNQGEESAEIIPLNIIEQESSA
In words: hCTR2 assay: induction of cAMP (AlphaScreen cAMP Assay kit) in COS7 cells expressing hCTR2. It is filed as cell-based. In outline: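 Cells were seeded one day ahead, washed, then exposed to rising peptide concentrations for 15 min at 37° C in the presence of 100 µM IBMX. After lysis for 10 min at room temperature, cAMP was quantified by AlphaScreen and EC50 values derived by 4PL fitting.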
A general note: Bead proximity is the source of the signal in Alpha formats.

Data set [2] is described as follows: Solubility assessment (turbidity absorbance at 325 nm). Format: physicochemical. The note with it: stock 2 mg/ml diluted 1:1, ambient temperature (typically 25°C), n=1; for Solubility, Acetate buffer pH 4: 100 mM acetate buffer pH 4.0; for Solubility, Acetate buffer pH 5: 100 mM acetate buffer pH 5.0; for Solubility, Histidine buffer pH 6: 100 mM histidine buffer pH 6.0; for Solubility, Histidine buffer pH 7: 100 mM histidine buffer pH 7.0; for Solubility, Phosphate buffer pH 6: 100 mM phosphate buffer pH 6.0; for Solubility, Phosphate buffer pH 7: 100 mM phosphate buffer pH 7.0; for Solubility, Phosphate buffer pH 7.5: 100 mM phosphate buffer pH7.5. In outline:
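Read-out: turbidity as absorbance at 325 nm (280 nm also read), single samples, ambient temperature of typically 25°C. Samples were a 1:1 mix of 2 mg/ml stock (water, pH 2.5) with 100 mM acetate, histidine or phosphate buffers spanning pH 4.0–7.5. Cut-off: A325 ≤ 0.02 indicates ≥ 1 mg/ml.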

For data set [3], the target named is T2, human amylin receptor 3 (hAMYR3) consisting of hCTR2 co-expressed with human Receptor Activity Modifying Protein 3 (hRAMP3) (Homo sapiens, UniProt O60896+P30988).
T2 construct: expressed in transfected cells
T2 sequence (P30988 25-474): T1 sequence (P30988 25-474)
T2 sequence (O60896 24-148 partner): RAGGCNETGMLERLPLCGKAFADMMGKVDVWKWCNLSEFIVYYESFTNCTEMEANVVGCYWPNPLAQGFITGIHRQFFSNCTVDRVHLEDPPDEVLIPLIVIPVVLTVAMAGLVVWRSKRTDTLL
In words: hAMYR3 assay: induction of cAMP (AlphaScreen cAMP Assay kit) in COS7 cells expressing hAMYR3. Format: cell-based. In outline:
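cAMP accumulation read by AlphaScreen in lysates of RAMP-naive COS7 cells stably transfected with hCTR2 plus hRAMP3. Cells exposed to peptide dilutions for 15 min, 37° C, with 100 µM IBMX; 4PL fitting gave EC50 and efficacy relative to pramlintide.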

Where [4] appears, read: cAMP induction in COS7 cells expressing hCTR2, average of a minimum of 3 determinations, read-out: hCTR2 EC50.
[5] abbreviates: cAMP induction in COS7 cells expressing hAMYR3, average of a minimum of 3 determinations, read-out: hAMY R3 EC50.

The structures appear in SMILES notation. Like-named read-outs stand apart in the source and are kept apart here. Numbered stars: 1 amine (or outer) side, 2 acyl side, 3 side chain; on linkers, the order of the positions; unused ones are H or OH. Bridge positions count the residues as written; N and C are the ends. Square brackets hold non-standard residues; d marks the D form. Peptide text beside a SMILES is read from it. * marks the point of attachment. C20 diacid = O=C(O)CCCCCCCCCCCCCCCCCCC(=O)*; γGlu = O=C(O)[C@H](CCC(=O)[*:2])N[*:1]; NMeI = CC[C@H](C)[C@H](NC)C(=O)O; Sar = CNCC(=O)O

`CC[C@H](C)[C@@H](C(=O)N[C@@H](CC(C)C)C(=O)N[C@@H](CO)C(=O)N[C@@H](CO)C(=O)N[C@H](C(=O)N[C@@H](CC(N)=O)C(=O)N[C@H](C(=O)NCC(=O)N[C@@H](CO)C(=O)N[C@@H](CC(N)=O)C(=O)N[C@H](C(=O)N1CCC[C@H]1C(=O)NC)[C@@H](C)O)C(C)C)[C@@H](C)O)N(C)C(=O)CN(C)C(=O)[C@H](Cc1ccccc1)NC(=O)[C@H](CC(N)=O)NC(=O)[C@H](CC(N)=O)NC(=O)[C@H](CO)NC(=O)[C@H](CO)NC(=O)[C@H](CCCNC(=N)N)NC(=O)[C@H](Cc1c[nH]cn1)NC(=O)[C@H](CC(C)C)NC(=O)[C@H](Cc1ccccc1)NC(=O)[C@H](CCC(=O)O)NC(=O)[C@H](C)NC(=O)[C@H](CC(C)C)NC(=O)[C@H](CCCNC(=N)N)NC(=O)[C@H](CCC(N)=O)NC(=O)[C@@H](NC(=O)[C@H](C)NC(=O)[C@@H]1CSSC[C@H](NC(=O)[C@H](CCCNC(=N)N)NC(=O)CC[C@H](NC(=O)CCCCCCCCCCCCCCCCCCC(=O)O)C(=O)O)C(=O)N[C@@H](CC(N)=O)C(=O)N[C@@H]([C@@H](C)O)C(=O)N[C@@H](C)C(=O)N[C@@H]([C@@H](C)O)C(=O)N1)[C@@H](C)O` [Compound 153, [19CD]-isoGlu-RC()NTATC()ATQRLAEFLHRSSNNF-Gly(Me)-Ile(Me)-LSSTNVGSNTP-NHMe] ({C20 diacid-γGlu}-RCNTATCATQRLAEFLHRSSNNF[Sar][NMeI]LSSTNVGSNTP-NHMe; disulfide 2-7): in data set [1] (setting [4]), the EC50 was found to be 0.73 nM. In data set [2], the “Solubility, Acetate buffer pH 4” value was “SS (SS indicates solubility ≥ 1mg/ml)”; the “Solubility, Acetate buffer pH 5” value is “SS (SS indicates solubility ≥ 1mg/ml)”; the “Solubility, Histidine buffer pH 6” value is “II (II indicates solubility ≤ 1 mg/ml)”; the “Solubility, Histidine buffer pH 7” value is given as “SS (SS indicates solubility ≥ 1mg/ml)”. In data set [2], the “Solubility, Phosphate buffer pH 6” value was “SS (SS indicates solubility ≥ 1mg/ml)”; the “Solubility, Phosphate buffer pH 7” value is “SS (SS indicates solubility ≥ 1mg/ml)”; the “Solubility, Phosphate buffer pH 7.5” value was “SS (SS indicates solubility ≥ 1mg/ml)”. The EC50 in data set [3] (setting [5]) is 6.1 nM.
For the molecule `CC[C@H](C)[C@@H](C(=O)N[C@@H](CC(C)C)C(=O)N[C@@H](CO)C(=O)N[C@@H](CO)C(=O)N[C@H](C(=O)N[C@@H](CC(N)=O)C(=O)N[C@H](C(=O)NCC(=O)N[C@@H](CO)C(=O)N[C@@H](CC(N)=O)C(=O)N[C@H](C(=O)N[C@@H](Cc1ccc(O)cc1)C(=O)NC)[C@@H](C)O)C(C)C)[C@@H](C)O)N(C)C(=O)[C@H](C)NC(=O)CN(C)C(=O)[C@H](Cc1ccccc1)NC(=O)[C@H](CC(N)=O)NC(=O)[C@H](CC(N)=O)NC(=O)[C@H](CO)NC(=O)[C@H](CO)NC(=O)[C@H](CCCNC(=N)N)NC(=O)[C@H](Cc1c[nH]cn1)NC(=O)[C@H](CC(C)C)NC(=O)[C@H](Cc1ccccc1)NC(=O)[C@H](CCC(=O)O)NC(=O)[C@H](C)NC(=O)[C@H](CC(C)C)NC(=O)[C@H](CCCNC(=N)N)NC(=O)[C@H](CCC(N)=O)NC(=O)[C@@H](NC(=O)[C@H](C)NC(=O)[C@@H]1CSSC[C@H](NC(=O)[C@H](CCCNC(=N)N)NC(=O)CC[C@H](NC(=O)CCCCCCCCCCCCCCCCCCC(=O)O)C(=O)O)C(=O)N[C@@H](CC(N)=O)C(=O)N[C@@H]([C@@H](C)O)C(=O)N[C@@H](C)C(=O)N[C@@H]([C@@H](C)O)C(=O)N1)[C@@H](C)O` [Compound 154, [19CD]-isoGlu-RC()NTATC()ATQRLAEFLHRSSNNF-Gly(Me)-A-Ile(Me)-LSSTNVGSNTY-NHMe] ({C20 diacid-γGlu}-RCNTATCATQRLAEFLHRSSNNF[Sar]A[NMeI]LSSTNVGSNTY-NHMe; disulfide 2-7), the EC50 in data set [1] was found to be 0.55 nM. Moreover, in data set [2], the “Solubility, Acetate buffer pH 4” value is listed as “SS (SS indicates solubility ≥ 1mg/ml)”; the “Solubility, Acetate buffer pH 5” value is listed as “SS (SS indicates solubility ≥ 1mg/ml)”; the “Solubility, Histidine buffer pH 6” value is on record as “SS (SS indicates solubility ≥ 1mg/ml)”; the “Solubility, Histidine buffer pH 7” value is reported as “II (II indicates solubility ≤ 1 mg/ml)”. In data set [2], the “Solubility, Phosphate buffer pH 6” value is “II (II indicates solubility ≤ 1 mg/ml)”; the “Solubility, Phosphate buffer pH 7” value is given as “II (II indicates solubility ≤ 1 mg/ml)”; the “Solubility, Phosphate buffer pH 7.5” value is given as “II (II indicates solubility ≤ 1 mg/ml)”. In addition, the EC50 in data set [3] was found to be 6.3 nM.
As to `CC[C@H](C)[C@@H](C(=O)N[C@@H](CC(C)C)C(=O)N[C@@H](CO)C(=O)N[C@@H](CO)C(=O)N[C@H](C(=O)N[C@@H](CC(N)=O)C(=O)N[C@H](C(=O)NCC(=O)N[C@@H](CO)C(=O)N[C@@H](CC(N)=O)C(=O)N[C@H](C(=O)N[C@@H](Cc1ccc(O)cc1)C(=O)NC)[C@@H](C)O)C(C)C)[C@@H](C)O)N(C)C(=O)CN(C)C(=O)[C@H](Cc1ccccc1)NC(=O)[C@H](CC(N)=O)NC(=O)[C@H](CC(N)=O)NC(=O)[C@H](CO)NC(=O)[C@H](CO)NC(=O)[C@H](CCCNC(=N)N)NC(=O)[C@H](Cc1c[nH]cn1)NC(=O)[C@H](CC(C)C)NC(=O)[C@H](Cc1ccccc1)NC(=O)[C@H](CCC(=O)O)NC(=O)[C@H](C)NC(=O)[C@H](CC(C)C)NC(=O)[C@H](CCCNC(=N)N)NC(=O)[C@H](CCC(N)=O)NC(=O)[C@@H](NC(=O)[C@H](C)NC(=O)[C@@H]1CSSC[C@H](NC(=O)[C@H](CCCNC(=N)N)NC(=O)CC[C@H](NC(=O)CCCCCCCCCCCCCCCCCCC(=O)O)C(=O)O)C(=O)N[C@@H](CC(N)=O)C(=O)N[C@@H]([C@@H](C)O)C(=O)N[C@@H](C)C(=O)N[C@@H]([C@@H](C)O)C(=O)N1)[C@@H](C)O` [Compound 155, [19CD]-isoGlu-RC()NTATC()ATQRLAEFLHRSSNNF-Gly(Me)-Ile(Me)-LSSTNVGSNTY-NHMe] ({C20 diacid-γGlu}-RCNTATCATQRLAEFLHRSSNNF[Sar][NMeI]LSSTNVGSNTY-NHMe; disulfide 2-7), the half-maximal effective concentration (EC50) in data set [1] (setting [4]) turned out to be 0.67 nM. For the same molecule, in data set [2], the “Solubility, Acetate buffer pH 4” value is recorded as “SS (SS indicates solubility ≥ 1mg/ml)”; the “Solubility, Acetate buffer pH 5” value was “SS (SS indicates solubility ≥ 1mg/ml)”; the “Solubility, Histidine buffer pH 6” value was “II (II indicates solubility ≤ 1 mg/ml)”; the “Solubility, Histidine buffer pH 7” value is reported as “II (II indicates solubility ≤ 1 mg/ml)”. Moreover, in data set [2], the “Solubility, Phosphate buffer pH 6” value is on record as “II (II indicates solubility ≤ 1 mg/ml)”; the “Solubility, Phosphate buffer pH 7” value is “II (II indicates solubility ≤ 1 mg/ml)”; the “Solubility, Phosphate buffer pH 7.5” value is reported as “II (II indicates solubility ≤ 1 mg/ml)”. Besides, in data set [3] (setting [5]), the EC50 turned out to be 5.3 nM.

As a reminder, the EC50 is the midpoint of the concentration-response curve.
